Experiments:
[1] = biological target: Cyclin-dependent kinase 8 (Homo sapiens, UniProt P49336); assay: Inhibition of CDK8 (unknown origin) after 60 mins by TR-FRET assay
[2] = biological target: Dual specificity protein kinase CLK2 (Homo sapiens, UniProt P49760); assay: Inhibition of CLK2 (unknown origin) after 60 mins by TR-FRET assay
[3] = biological target: Macrophage colony-stimulating factor 1 receptor (Homo sapiens, UniProt P07333); assay: Inhibition of CSF1R (unknown origin) after 60 mins by TR-FRET assay
[4] = biological target: Dual specificity tyrosine-phosphorylation-regulated kinase 1B (Homo sapiens, UniProt Q9Y463); assay: Inhibition of DYRK1B (unknown origin) after 60 mins by TR-FRET assay
[5] = biological target: Focal adhesion kinase 1 (Homo sapiens, UniProt Q05397); assay: Inhibition of FAK (unknown origin) after 60 mins by TR-FRET assay
[6] = biological target: Fibroblast growth factor receptor 1 (Homo sapiens, UniProt P11362); assay: Inhibition of FGFR1 (unknown origin) after 60 mins by TR-FRET assay
[7] = biological target: Tyrosine-protein kinase Fyn (Homo sapiens, UniProt P06241); assay: Inhibition of Fyn (unknown origin) after 60 mins by TR-FRET assay
[8] = biological target: Glycogen synthase kinase-3 beta (Homo sapiens, UniProt P49841); assay: Inhibition of GSK3B (unknown origin) after 60 mins by TR-FRET assay
[9] = biological target: Leukocyte tyrosine kinase receptor (Homo sapiens, UniProt P29376); assay: Inhibition of LTK (unknown origin) after 60 mins by TR-FRET assay
[10] = biological target: T1, Mitogen-activated protein kinase kinase kinase kinase 2 (Homo sapiens, UniProt Q12851); assay: Inhibition of MAP4K2 (unknown origin) after 60 mins by TR-FRET assay
T1 sequence (Q12851 whole entry): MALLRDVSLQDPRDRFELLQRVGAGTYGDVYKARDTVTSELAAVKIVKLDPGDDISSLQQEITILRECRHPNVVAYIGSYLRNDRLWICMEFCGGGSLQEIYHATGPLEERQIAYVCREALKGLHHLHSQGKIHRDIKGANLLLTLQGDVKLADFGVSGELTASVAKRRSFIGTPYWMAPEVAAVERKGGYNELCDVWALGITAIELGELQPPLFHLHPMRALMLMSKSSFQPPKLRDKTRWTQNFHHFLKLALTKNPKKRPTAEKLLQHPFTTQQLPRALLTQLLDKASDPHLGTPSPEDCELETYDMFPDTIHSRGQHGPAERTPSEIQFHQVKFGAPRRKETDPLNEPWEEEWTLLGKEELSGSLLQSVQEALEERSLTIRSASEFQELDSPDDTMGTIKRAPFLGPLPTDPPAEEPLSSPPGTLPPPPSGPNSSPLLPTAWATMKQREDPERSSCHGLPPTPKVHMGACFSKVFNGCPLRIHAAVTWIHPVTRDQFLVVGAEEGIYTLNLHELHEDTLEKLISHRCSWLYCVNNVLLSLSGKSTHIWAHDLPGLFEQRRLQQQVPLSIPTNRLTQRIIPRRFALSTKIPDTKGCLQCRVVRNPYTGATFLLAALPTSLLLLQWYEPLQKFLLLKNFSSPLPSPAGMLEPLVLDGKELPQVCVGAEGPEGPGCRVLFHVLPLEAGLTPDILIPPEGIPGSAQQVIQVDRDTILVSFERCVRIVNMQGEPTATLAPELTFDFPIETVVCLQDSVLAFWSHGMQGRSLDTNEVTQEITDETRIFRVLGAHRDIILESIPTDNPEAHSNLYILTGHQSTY

[11] = biological target: Mitogen-activated protein kinase kinase kinase kinase 4 (Homo sapiens, UniProt O95819); assay: Inhibition of MAP4K4 (unknown origin) after 60 mins by TR-FRET assay
[12] = biological target: Dual specificity mitogen-activated protein kinase kinase 1 (Homo sapiens, UniProt Q02750); assay: Inhibition of MEK1 (unknown origin) after 60 mins by TR-FRET assay
[13] = biological target: Serine/threonine-protein kinase pim-1 (Homo sapiens, UniProt P11309); assay: Inhibition of PIM1 (unknown origin) after 60 mins by TR-FRET assay
[14] = biological target: Proto-oncogene tyrosine-protein kinase receptor Ret (Homo sapiens, UniProt P07949); assay: Inhibition of RET (unknown origin) after 60 mins by TR-FRET assay
[15] = biological target: Rho-associated protein kinase 1 (Homo sapiens, UniProt Q13464); assay: Inhibition of ROCK1(unknown origin) after 60 mins by TR-FRET assay
[16] = biological target: Rho-associated protein kinase 2 (Homo sapiens, UniProt O75116); assay: Inhibition of ROCK2 (unknown origin) after 60 mins by TR-FRET assay
[17] = biological target: Ribosomal protein S6 kinase alpha-3 (Homo sapiens, UniProt P51812); assay: Inhibition of RSK2 (unknown origin) after 60 mins by TR-FRET assay
[18] = biological target: T2, Serine/threonine-protein kinase TBK1 (Homo sapiens, UniProt Q9UHD2); assay: Inhibition of TBK1 (unknown origin) after 60 mins by TR-FRET assay
T2 sequence (Q9UHD2 whole entry): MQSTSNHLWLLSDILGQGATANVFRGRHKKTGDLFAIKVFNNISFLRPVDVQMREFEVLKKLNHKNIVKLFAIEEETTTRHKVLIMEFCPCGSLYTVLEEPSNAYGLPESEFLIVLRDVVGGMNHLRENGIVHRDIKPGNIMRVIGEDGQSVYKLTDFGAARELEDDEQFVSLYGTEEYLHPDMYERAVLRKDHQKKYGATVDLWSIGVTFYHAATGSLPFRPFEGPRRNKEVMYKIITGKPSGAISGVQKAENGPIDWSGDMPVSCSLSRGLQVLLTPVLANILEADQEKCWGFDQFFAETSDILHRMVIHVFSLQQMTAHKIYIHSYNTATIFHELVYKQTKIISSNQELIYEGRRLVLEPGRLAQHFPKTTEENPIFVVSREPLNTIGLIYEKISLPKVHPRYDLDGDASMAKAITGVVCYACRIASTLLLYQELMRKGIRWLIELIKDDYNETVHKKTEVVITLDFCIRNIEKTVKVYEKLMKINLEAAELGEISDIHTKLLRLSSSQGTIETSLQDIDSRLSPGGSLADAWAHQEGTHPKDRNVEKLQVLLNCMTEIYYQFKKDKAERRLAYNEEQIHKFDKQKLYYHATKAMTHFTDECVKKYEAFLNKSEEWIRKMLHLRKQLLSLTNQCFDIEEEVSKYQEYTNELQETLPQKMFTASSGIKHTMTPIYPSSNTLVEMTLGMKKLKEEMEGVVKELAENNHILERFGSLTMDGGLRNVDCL

[19] = biological target: High affinity nerve growth factor receptor (Homo sapiens, UniProt P04629); assay: Inhibition of TRKA (unknown origin) after 60 mins by TR-FRET assay
[20] = biological target: BDNF/NT-3 growth factors receptor (Homo sapiens, UniProt Q16620); assay: Inhibition of TrkB (unknown origin) after 60 mins by TR-FRET assay
[21] = biological target: Death-associated protein kinase 3 (Homo sapiens, UniProt O43293); assay: Inhibition of ZIPK (unknown origin) after 60 mins by TR-FRET assay
Death-associated protein kinase 3, sequence (O43293 whole entry): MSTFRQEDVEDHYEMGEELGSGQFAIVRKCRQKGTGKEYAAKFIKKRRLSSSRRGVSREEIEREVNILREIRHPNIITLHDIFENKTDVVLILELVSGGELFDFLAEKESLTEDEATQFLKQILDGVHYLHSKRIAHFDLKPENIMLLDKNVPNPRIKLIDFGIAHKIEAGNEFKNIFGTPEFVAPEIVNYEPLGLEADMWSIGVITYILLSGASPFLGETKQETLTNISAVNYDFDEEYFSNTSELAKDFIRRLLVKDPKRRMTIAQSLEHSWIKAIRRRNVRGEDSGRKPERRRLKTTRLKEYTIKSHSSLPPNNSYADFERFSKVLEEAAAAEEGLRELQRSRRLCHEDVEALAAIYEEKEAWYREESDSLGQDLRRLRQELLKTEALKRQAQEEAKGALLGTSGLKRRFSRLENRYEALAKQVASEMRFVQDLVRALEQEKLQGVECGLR

Fibroblast growth factor receptor 1, sequence (P11362 whole entry): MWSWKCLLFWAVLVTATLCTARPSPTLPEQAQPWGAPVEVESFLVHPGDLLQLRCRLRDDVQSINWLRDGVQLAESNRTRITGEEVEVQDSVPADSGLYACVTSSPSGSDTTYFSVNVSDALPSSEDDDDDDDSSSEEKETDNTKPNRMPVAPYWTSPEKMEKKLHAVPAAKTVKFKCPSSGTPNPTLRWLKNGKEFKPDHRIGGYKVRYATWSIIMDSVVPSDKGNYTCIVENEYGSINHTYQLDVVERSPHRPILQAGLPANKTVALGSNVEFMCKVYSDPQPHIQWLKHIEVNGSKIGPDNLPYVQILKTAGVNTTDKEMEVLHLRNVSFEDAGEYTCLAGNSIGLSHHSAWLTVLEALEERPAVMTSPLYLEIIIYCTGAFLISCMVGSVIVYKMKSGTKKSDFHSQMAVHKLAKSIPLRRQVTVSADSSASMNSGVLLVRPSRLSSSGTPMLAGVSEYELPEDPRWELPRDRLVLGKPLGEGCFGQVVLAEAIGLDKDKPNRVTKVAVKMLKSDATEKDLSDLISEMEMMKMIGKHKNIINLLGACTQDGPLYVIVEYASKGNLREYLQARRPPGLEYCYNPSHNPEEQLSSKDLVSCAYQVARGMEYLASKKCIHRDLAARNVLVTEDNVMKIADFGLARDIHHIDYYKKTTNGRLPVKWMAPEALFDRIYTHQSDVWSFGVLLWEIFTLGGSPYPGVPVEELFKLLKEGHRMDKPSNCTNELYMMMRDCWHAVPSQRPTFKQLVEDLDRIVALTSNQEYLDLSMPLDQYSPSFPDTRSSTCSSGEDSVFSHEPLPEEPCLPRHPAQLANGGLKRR
Ribosomal protein S6 kinase alpha-3, sequence (P51812 whole entry): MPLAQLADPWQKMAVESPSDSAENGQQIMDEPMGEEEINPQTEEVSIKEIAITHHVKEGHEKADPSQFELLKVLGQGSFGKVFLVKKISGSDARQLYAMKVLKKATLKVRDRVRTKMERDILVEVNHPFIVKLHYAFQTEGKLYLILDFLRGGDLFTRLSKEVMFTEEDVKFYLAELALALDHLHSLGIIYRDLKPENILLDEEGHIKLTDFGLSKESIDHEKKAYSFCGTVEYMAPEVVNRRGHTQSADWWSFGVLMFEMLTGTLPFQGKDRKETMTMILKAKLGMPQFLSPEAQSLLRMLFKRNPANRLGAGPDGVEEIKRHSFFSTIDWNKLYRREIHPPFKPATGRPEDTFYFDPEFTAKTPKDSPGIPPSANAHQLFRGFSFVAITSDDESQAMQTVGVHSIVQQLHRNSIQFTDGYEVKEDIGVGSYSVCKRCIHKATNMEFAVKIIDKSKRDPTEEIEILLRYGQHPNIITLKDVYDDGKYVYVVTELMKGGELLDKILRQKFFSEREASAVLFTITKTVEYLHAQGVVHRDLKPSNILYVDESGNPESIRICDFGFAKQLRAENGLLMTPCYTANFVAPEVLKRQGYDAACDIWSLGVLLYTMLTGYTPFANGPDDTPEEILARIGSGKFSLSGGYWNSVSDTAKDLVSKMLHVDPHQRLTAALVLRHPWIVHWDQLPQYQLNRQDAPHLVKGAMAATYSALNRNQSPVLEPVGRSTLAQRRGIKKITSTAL
Leukocyte tyrosine kinase receptor, sequence (P29376 whole entry): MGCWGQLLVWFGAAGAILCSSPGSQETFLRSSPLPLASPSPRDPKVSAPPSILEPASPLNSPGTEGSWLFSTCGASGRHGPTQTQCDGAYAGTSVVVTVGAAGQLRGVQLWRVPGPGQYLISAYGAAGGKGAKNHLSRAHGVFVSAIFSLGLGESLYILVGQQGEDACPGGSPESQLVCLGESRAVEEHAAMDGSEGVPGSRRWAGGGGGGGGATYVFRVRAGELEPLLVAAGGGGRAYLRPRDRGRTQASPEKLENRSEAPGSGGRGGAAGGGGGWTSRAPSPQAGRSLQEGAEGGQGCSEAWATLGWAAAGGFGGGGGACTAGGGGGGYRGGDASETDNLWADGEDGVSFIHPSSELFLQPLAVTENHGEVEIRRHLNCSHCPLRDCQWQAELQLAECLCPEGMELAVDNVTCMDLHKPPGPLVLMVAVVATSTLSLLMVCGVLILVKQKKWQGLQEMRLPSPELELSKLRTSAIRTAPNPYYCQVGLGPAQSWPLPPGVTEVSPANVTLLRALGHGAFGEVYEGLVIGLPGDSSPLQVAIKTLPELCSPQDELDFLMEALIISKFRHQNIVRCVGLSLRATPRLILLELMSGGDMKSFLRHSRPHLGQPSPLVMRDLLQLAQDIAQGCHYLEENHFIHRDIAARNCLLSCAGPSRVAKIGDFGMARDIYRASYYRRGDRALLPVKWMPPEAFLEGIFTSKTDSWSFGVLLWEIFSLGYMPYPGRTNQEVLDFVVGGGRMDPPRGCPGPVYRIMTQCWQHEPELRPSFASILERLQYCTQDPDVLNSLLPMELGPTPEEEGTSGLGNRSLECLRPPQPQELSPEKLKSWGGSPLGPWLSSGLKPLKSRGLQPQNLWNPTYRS
High affinity nerve growth factor receptor, sequence (P04629 whole entry): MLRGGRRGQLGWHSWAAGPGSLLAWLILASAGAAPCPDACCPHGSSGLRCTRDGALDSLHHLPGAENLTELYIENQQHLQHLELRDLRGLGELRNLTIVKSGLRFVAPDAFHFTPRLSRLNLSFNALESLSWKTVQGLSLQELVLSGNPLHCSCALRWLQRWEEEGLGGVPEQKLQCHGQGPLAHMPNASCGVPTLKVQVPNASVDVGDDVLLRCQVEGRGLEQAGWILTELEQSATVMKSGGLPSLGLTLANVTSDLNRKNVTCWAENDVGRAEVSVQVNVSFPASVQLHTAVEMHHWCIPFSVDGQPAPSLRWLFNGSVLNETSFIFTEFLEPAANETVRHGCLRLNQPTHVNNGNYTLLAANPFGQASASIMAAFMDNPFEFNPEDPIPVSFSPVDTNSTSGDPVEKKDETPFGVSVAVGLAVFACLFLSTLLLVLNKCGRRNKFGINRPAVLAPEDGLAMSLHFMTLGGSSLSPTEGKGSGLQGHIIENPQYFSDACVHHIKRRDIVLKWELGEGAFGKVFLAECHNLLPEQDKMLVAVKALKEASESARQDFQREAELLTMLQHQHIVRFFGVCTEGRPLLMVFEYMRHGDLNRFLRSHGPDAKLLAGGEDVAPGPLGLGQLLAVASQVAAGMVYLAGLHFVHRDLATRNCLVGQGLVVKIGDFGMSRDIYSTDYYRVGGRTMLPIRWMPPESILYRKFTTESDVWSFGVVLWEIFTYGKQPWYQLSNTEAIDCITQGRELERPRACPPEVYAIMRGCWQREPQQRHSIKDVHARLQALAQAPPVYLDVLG
Rho-associated protein kinase 1, sequence (Q13464 whole entry): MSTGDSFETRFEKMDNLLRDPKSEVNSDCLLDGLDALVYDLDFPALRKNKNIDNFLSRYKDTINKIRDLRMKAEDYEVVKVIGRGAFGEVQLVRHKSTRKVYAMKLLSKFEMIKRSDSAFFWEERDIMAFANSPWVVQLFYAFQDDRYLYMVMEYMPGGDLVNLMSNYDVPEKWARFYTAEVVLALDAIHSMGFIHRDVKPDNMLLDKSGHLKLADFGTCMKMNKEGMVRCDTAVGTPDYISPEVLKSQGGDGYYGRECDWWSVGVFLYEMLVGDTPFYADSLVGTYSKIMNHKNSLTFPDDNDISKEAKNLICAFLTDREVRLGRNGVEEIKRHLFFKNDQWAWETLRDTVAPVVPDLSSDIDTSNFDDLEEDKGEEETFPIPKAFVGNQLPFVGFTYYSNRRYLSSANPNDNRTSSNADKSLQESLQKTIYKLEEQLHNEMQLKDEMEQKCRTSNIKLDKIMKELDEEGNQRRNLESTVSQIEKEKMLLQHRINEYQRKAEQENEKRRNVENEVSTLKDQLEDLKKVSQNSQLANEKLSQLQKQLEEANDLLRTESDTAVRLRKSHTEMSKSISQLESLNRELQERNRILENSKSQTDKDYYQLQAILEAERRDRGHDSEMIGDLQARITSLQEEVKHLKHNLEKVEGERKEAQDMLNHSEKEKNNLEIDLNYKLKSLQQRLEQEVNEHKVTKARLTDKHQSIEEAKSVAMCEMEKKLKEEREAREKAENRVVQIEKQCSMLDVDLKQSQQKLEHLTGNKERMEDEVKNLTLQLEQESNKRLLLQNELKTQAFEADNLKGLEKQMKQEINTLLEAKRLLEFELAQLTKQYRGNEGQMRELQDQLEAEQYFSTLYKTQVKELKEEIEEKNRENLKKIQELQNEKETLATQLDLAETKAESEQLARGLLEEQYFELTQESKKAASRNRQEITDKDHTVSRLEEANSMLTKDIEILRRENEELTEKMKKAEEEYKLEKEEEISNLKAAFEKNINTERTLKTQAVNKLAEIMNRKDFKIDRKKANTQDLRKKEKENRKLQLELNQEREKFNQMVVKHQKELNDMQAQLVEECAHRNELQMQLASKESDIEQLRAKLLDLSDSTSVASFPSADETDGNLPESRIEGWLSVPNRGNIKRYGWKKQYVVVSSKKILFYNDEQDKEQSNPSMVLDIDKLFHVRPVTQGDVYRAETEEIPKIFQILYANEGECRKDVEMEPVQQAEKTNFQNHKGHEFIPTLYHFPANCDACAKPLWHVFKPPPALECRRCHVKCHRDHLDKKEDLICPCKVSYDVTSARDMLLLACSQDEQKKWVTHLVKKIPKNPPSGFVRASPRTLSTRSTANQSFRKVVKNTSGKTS

IC50 [1] [µM] | IC50 [2] [µM] | IC50 [3] [µM] | IC50 [4] [µM] | IC50 [5] [µM] | IC50 [6] [µM] | IC50 [7] [µM] | IC50 [8] [µM] | IC50 [9] [µM] | IC50 [10] [µM] | IC50 [11] [µM] | IC50 [12] [µM] | IC50 [13] [µM] | IC50 [14] [µM] | IC50 [15] [µM] | IC50 [16] [µM] | IC50 [17] [µM] | IC50 [18] [µM] | IC50 [19] [µM] | IC50 [20] [µM] | Compound | also measured
> 10 | > 10 | > 10 | > 10 | 5.5 | > 10 | 0.201 | > 10 | 5.11 | 2.94 | > 10 | > 10 | > 10 | 0.379 | 5.78 | 6.32 | > 10 | 7.61 | 5.4 | 0.379 | CC1(C)OCC(=O)Nc2cc(Nc3nc(NCC(F)(F)F)c4occc4n3)ccc21 | IC50 [21]: > 10 µM
2.11 | 6.44 | > 10 |  | > 10 | > 10 |  | > 10 | 7.4 |  | > 10 | > 10 | 1.36 | 3.5 | 8.61 |  | 9.81 | > 10 | > 10 |  | FC(F)(F)CNc1nc(Nc2ccc3cn[nH]c3c2)nc2ccoc12 | 
> 10 | > 10 | > 10 | > 10 |  | > 10 | 5.96 | > 10 | 6.01 | 6.24 | 9.43 | > 10 | > 10 |  | > 10 | > 10 |  | > 10 | > 10 | > 10 | Cc1n[nH]c2cc(Nc3nc(NC4CC4)c4occc4n3)ccc12 | IC50 [21]: 4.98 µM
> 10 | > 10 | > 10 | > 10 | > 10 | > 10 | 1.51 | > 10 | > 10 | 1.57 | > 10 | > 10 | > 10 | 1.51 | > 10 | > 10 | > 10 | > 10 | > 10 | 8.34 | FC(F)(F)CNc1nc(Nc2ccc(N3CCOCC3)c(Cl)c2)nc2ccoc12 | IC50 [21]: > 10 µM
